What was measured:
[1] = for molar entropy: 101.33 kPa, Vacuum adiabatic calorimetry
[2] = molar heat capacity at constant pressure; details: 101.33 kPa, Vacuum adiabatic calorimetry

[Cl][Ru-2]([Cl])([Cl])([Cl])([Cl])[Cl].[NH4+].[NH4+] [diammonium hexachlororuthenate]
Details	molar entropy, [1] [J/K/mol]	molar heat capacity at constant pressure, [2] [J/K/mol]
5 K, Crystal 2	0.1106	0.3475
5.89 K, Crystal 2	–	0.5877
7.09 K, Crystal 2	–	1.079
8.03 K, Crystal 2	–	1.495
9.46 K, Crystal 2	–	2.313
10 K, Crystal 2	0.9395	2.661
10.8 K, Crystal 2	–	3.236
11.99 K, Crystal 2	–	4.23
13.2 K, Crystal 2	–	5.407
14.5 K, Crystal 2	–	6.916
15 K, Crystal 2	2.827	7.358
15.9 K, Crystal 2	–	8.589
17.35 K, Crystal 2	–	10.37
18.81 K, Crystal 2	–	12.31
20 K, Crystal 2	5.82	13.97
20.31 K, Crystal 2	–	14.26
21.81 K, Crystal 2	–	16.45
23.4 K, Crystal 2	–	18.76
25 K, Crystal 2	9.703	21.24
25.1 K, Crystal 2	–	21.38
26.81 K, Crystal 2	–	24.18
28.54 K, Crystal 2	–	26.91
30 K, Crystal 2	14.44	29.49
30.27 K, Crystal 2	–	30.01
32.02 K, Crystal 2	–	33.06
33.91 K, Crystal 2	–	36.87
35 K, Crystal 2	19.68	38.87
35.95 K, Crystal 2	–	40.66
37.99 K, Crystal 2	–	44.72
40 K, Crystal 2	25.51	48.89
40.05 K, Crystal 2	–	48.96
42.12 K, Crystal 2	–	53.55
44.2 K, Crystal 2	–	58.17
45 K, Crystal 2	31.89	59.91
46.3 K, Crystal 2	–	62.77
48.41 K, Crystal 2	–	67.6
50 K, Crystal 2	38.8	71.36
50.8 K, Crystal 2	–	73.15
53.47 K, Crystal 2	–	79.64
55 K, Crystal 2	46.15	83.48
56.15 K, Crystal 2	–	86.22
58.85 K, Crystal 2	–	92.96
60 K, Crystal 2	53.94	95.95
61.55 K, Crystal 2	–	100.02
64.27 K, Crystal 2	–	107.34
65 K, Crystal 2	62.15	109.25
67.13 K, Crystal 2	–	114.99
70 K, Crystal 2	70.73	122.72
70.82 K, Crystal 2	–	125.13
75 K, Crystal 2	79.67	136.44
75.14 K, Crystal 2	–	136.94
79.45 K, Crystal 2	–	149.83
80 K, Crystal 2	88.97	151.49
83.79 K, Crystal 2	–	162.3
85 K, Crystal 2	98.53	165.79
88.18 K, Crystal 2	–	174.11
90 K, Crystal 2	108.42	179.09
92.84 K, Crystal 1	–	184.67
92.84 K, Crystal 2	–	184.67
95 K, Crystal 1	118.32	184.75
97.88 K, Crystal 1	–	182
100 K, Crystal 1	127.71	180.76
103.06 K, Crystal 1	–	178.1
105 K, Crystal 1	136.44	179.26
108.18 K, Crystal 1	–	182.59
110 K, Crystal 1	144.92	184.83
113.23 K, Crystal 1	–	188.41
115 K, Crystal 1	153.24	190.49
118.27 K, Crystal 1	–	194.14
120 K, Crystal 1	161.47	196.14
123.32 K, Crystal 1	–	199.88
125 K, Crystal 1	169.62	201.54
128.39 K, Crystal 1	–	205.12
130 K, Crystal 1	177.6	206.62
133.46 K, Crystal 1	–	209.77
135 K, Crystal 1	185.5	211.35
138.55 K, Crystal 1	–	214.6
140 K, Crystal 1	193.31	215.93
143.8 K, Crystal 1	–	219.17
145 K, Crystal 1	200.96	220.17
149.2 K, Crystal 1	–	223.33
150 K, Crystal 1	208.44	224.24
154.62 K, Crystal 1	–	227.65
160 K, Crystal 1	223.16	231.48
160.04 K, Crystal 1	–	231.39
165.48 K, Crystal 1	–	235.13
170 K, Crystal 1	237.38	238.13
170.9 K, Crystal 1	–	238.71
176.33 K, Crystal 1	–	242.45
180 K, Crystal 1	251.18	244.78
181.77 K, Crystal 1	–	245.78
187.21 K, Crystal 1	–	249.27
190 K, Crystal 1	264.65	251.43
192.66 K, Crystal 1	–	253.09
198.19 K, Crystal 1	–	256.75
200 K, Crystal 1	277.7	257.83
203.88 K, Crystal 1	–	260.16
209.62 K, Crystal 1	–	263.57
210 K, Crystal 1	290.43	263.74
215.39 K, Crystal 1	–	266.9
220 K, Crystal 1	302.81	269.06
221.19 K, Crystal 1	–	269.39
226.95 K, Crystal 1	–	272.55
230 K, Crystal 1	314.87	274.21
232.71 K, Crystal 1	–	275.46
238.48 K, Crystal 1	–	277.79
240 K, Crystal 1	326.68	278.37
244.25 K, Crystal 1	–	279.78
250 K, Crystal 1	338.07	281.53
250.07 K, Crystal 1	–	281.53
256.04 K, Crystal 1	–	283.36
260 K, Crystal 1	349.21	284.44
262.1 K, Crystal 1	–	285.02
268.12 K, Crystal 1	–	286.68
270 K, Crystal 1	359.93	287.18
274.34 K, Crystal 1	–	288.18
280 K, Crystal 1	370.49	290.18
280.52 K, Crystal 1	–	290.51
286.4 K, Crystal 1	–	292.01
290 K, Crystal 1	380.72	293.09
292.34 K, Crystal 1	–	293.92
298.15 K, Crystal 1	388.87	295.66
298.3 K, Crystal 1	–	295.25
300 K, Crystal 1	390.7	296.16
304.21 K, Crystal 1	–	297.33
310 K, Crystal 1	400.43	298.91
310.08 K, Crystal 1	–	298.91
315.97 K, Crystal 1	–	300.4
320 K, Crystal 1	409.99	301.15
321.87 K, Crystal 1	–	301.57
325 K, Crystal 1	414.64	302.23

Details	Triple point temperature [K]
[1], Crystal 2, Adiabatic calorimetry	92.84
